Here are results for 15 compounds from ChEMBL document CHEMBL1144034, “Synthesis and anti-protozoal activity of C2-substituted polyazamacrocycles” (Bioorg Med Chem Lett, 2008).

Usually EC50 stands for the midpoint of the concentration-response curve. A high value points to a need for much substance. The logP is a log measure of how a compound divides between an organic and an aqueous phase. Read a low logP as lower lipophilicity.

The subject of one data set is Trypanosoma brucei. Description: Antiprotozoal activity against Trypanosoma brucei by Alamar blue assay. The data set is classed as functional, organism-based.
Another data set deals with Plasmodium falciparum. Briefly: Antiprotozoal activity against Plasmodium falciparum. The data set is classed as functional, organism-based.
A short description of data set [1]: Cytotoxicity against HEK cells. The data set is classed as cell-based. Conditions: Homo sapiens, HEK293.
Data set [2] can be described thus: Partition coefficient, log P of the compound. The data set is classed as physicochemical. Conditions: octanol/water.

In the case of `c1ccc(C2CNCCNCCNCCN2)cc1` (configuration not stated), the EC50 in the data set with Trypanosoma brucei was > 200 µM; in the data set on Plasmodium falciparum, 26 µM; in data set [1], > 200 µM. Besides, the logP in data set [2] was -0.2.

As to `c1ccc2c(c1)Cc1cc(C3CNCCNCCNCCN3)ccc1-2` (configuration not stated), the EC50 in the data set with Trypanosoma brucei worked out at 2.6 µM; in the data set with Plasmodium falciparum, 1.3 µM; in data set [1], 26 µM. Further, the logP in data set [2] stood at 1.8.

For the compound `c1ccc2cc(C3CNCCNCCNCCN3)ccc2c1` (configuration not stated), the EC50 with Trypanosoma brucei is 6.9 µM; with Plasmodium falciparum it was 1.7 µM; in data set [1] it was > 200 µM. The compound further displayed a logP in data set [2] of 1.

Consider `Clc1ccc(C2CNCCNCCNCCN2)cc1` (configuration not stated), for which the EC50 in the data set with Trypanosoma brucei worked out at 2.8 µM; with Plasmodium falciparum, 2.3 µM; in data set [1] it was 181 µM. Also, the logP in data set [2] worked out at 0.8.

Turning to `COc1ccc(C2CNCCNCCNCCN2)cc1` (configuration not stated), the EC50 is > 200 µM in the data set with Trypanosoma brucei, 26 µM with Plasmodium falciparum and > 200 µM in data set [1]. Also, the log partition coefficient (logP) in data set [2] is -0.1.

For the compound `FC(F)(F)c1cc(C2CNCCNCCNCCN2)cc(C(F)(F)F)c1` (configuration not stated), the concentration for a half-maximal effect (EC50) came out at 6.8 µM in the data set on Trypanosoma brucei, 4.8 µM in the data set on Plasmodium falciparum and 61 µM in data set [1]. The compound also registered a logP in data set [2] of 1.7.

As to `CC(C)(C)C1CNCCNCCNCCN1` (configuration not stated), the EC50 in the data set with Trypanosoma brucei is 133 µM; in the data set on Plasmodium falciparum, > 100 µM; in data set [1], > 200 µM. Moreover, in data set [2], the logP was -0.1.

Consider `c1ccc2c(c1)ccc1cc(C3CNCCNCCNCCN3)ccc12` (configuration not stated), for which the EC50 in the data set on Plasmodium falciparum is < 1.5 µM. This compound also came in with a lipophilicity (logP) in data set [2] of 2.2.

`Brc1ccc(C2CNCCNCCNCCN2)cc1` (configuration not stated): the EC50 was 21.8 µM in the data set on Trypanosoma brucei, 5.8 µM with Plasmodium falciparum and > 200 µM in data set [1]. The same compound had a logP in data set [2] of 0.7.

For `C1CNCCNCCNCCN1`, the results for the EC50 (in the data set on Trypanosoma brucei; in the data set on Plasmodium falciparum; in data set [1]) were > 200 µM, > 100 µM and 5 µM, respectively. Moreover, in data set [2], the logP is -1.8.

`FC(F)(F)c1ccc(C2CNCCNCCNCCN2)cc1` (configuration not stated): the figures for the EC50 (in the data set with Trypanosoma brucei; with Plasmodium falciparum; in data set [1]) were 6.8 µM, 5 µM and 73 µM, respectively. Also, the logP in data set [2] came to 0.8.

As to `c1csc(C2CNCCNCCNCCN2)c1` (configuration not stated), the EC50 was 72.3 µM with Trypanosoma brucei, 46.7 µM in the data set with Plasmodium falciparum and > 200 µM in data set [1]. For the same compound, in data set [2], the lipophilicity (logP) was -0.4.

`CCN(CC)CCCC(C)Nc1ccnc2cc(Cl)ccc12` (configuration not stated) [CHLOROQUINE]: in the data set with Plasmodium falciparum, the EC50 stood at 0.008 µM.

Consider `O=[N+]([O-])c1ccc(C2CNCCNCCNCCN2)cc1` (configuration not stated), for which the EC50 with Trypanosoma brucei was > 200 µM; with Plasmodium falciparum, 13 µM; in data set [1], > 200 µM. In data set [2], the logP is -0.4.

As for `N=C(N)c1ccc(OCCCCCOc2ccc(C(=N)N)cc2)cc1` [PENTAMIDINE], the EC50 in the data set on Trypanosoma brucei was found to be 0.006 µM.
